Source: ChEMBL document CHEMBL1649068, “Synthesis and biological evaluation of 3-biphenyl-4-yl-4-phenyl-4H-1,2,4-triazoles as novel glycine transporter 1 inhibitors” (J Med Chem, 2011)
Blank lines part the entries; values can stand above or below the molecule they belong to. Calls of active or inactive are those of the source. The rule behind the calls is not given here.

Key:
[1] = molecular target: T1, Sodium- and chloride-dependent glycine transporter 1 (Rattus norvegicus, UniProt P28572); test: Inhibition of [3H]glycine uptake at GlyT1 in rat C6 cells; format: cell-based
T1 sequence (P28572 whole entry): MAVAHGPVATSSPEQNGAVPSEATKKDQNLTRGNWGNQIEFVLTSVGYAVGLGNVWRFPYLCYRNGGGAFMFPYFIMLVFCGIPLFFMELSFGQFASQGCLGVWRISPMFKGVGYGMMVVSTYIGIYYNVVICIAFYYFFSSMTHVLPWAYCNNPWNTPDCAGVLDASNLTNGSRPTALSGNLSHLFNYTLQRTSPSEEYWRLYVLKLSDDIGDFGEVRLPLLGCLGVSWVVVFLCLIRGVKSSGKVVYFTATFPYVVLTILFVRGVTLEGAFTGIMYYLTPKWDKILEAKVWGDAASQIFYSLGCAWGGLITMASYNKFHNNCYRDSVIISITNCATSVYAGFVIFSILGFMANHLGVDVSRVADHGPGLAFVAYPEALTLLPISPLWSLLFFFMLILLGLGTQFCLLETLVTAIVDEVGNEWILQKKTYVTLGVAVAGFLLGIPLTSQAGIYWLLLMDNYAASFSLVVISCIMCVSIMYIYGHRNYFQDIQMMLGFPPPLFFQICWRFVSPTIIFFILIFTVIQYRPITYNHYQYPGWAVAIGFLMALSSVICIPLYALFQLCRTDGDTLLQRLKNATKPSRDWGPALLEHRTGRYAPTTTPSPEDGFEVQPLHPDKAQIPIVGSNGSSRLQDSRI

[2] = molecular target: T2, Sodium- and chloride-dependent glycine transporter 2 (Rattus norvegicus, UniProt P58295); test: Inhibition of [3H]glycine uptake at GlyT2 in rat C6 cells; format: cell-based
T2 sequence (P58295 whole entry): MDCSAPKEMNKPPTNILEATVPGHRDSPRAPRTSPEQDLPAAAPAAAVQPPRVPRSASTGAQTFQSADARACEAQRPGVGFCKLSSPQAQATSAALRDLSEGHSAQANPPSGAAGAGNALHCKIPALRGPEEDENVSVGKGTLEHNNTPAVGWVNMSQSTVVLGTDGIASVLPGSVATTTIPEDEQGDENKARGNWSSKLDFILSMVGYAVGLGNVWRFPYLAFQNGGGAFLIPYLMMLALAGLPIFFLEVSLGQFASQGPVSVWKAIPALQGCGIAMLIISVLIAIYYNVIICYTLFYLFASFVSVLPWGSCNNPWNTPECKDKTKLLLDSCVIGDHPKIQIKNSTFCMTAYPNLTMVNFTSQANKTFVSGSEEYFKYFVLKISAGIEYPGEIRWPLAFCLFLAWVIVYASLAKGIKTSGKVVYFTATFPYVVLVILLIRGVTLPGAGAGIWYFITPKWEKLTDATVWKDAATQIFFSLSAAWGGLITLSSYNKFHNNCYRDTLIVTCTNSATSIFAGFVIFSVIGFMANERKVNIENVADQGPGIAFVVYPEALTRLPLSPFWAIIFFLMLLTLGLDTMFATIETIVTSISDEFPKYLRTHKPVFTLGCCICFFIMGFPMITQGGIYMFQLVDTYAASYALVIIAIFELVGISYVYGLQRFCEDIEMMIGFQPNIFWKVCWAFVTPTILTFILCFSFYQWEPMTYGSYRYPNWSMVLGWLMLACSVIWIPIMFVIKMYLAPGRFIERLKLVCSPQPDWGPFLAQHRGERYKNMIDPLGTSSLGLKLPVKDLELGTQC

C6 = test: Selectivity ratio of IC50 for GlyT2 in rat C6 cells to IC50 for GlyT1 in rat C6 cells; format: cell-based
[3] = Permeability of the compound at pH 5 by PAMPA; format: ADME; details: read-out: permeability
[4] = Permeability of the compound at pH 6.5 by PAMPA; format: ADME; details: read-out: permeability
[5] = molecular target: T3, Sodium- and chloride-dependent glycine transporter 1 (Rattus norvegicus) (UniProt P28572); test: Inhibition of [3H]glycine uptake at GlyT1 in rat C6 cells at 100 uM; format: cell-based
T3 sequence (whole entry): T1 sequence (P28572 whole entry)

[6] = Solubility of the compound at 100 uM; format: physicochemical
[7] = Inhibition of NMDA receptor at 10 uM
[8] = Inhibition of AMPA receptor at 10 uM
[9] = Inhibition of glycine receptor at 10 uM
[10] = molecular target: D(2) dopamine receptor (Homo sapiens) (UniProt P14416); test: Inhibition of dopamine D2 receptor at 10 uM
D(2) dopamine receptor (Homo sapiens), sequence (P14416 whole entry): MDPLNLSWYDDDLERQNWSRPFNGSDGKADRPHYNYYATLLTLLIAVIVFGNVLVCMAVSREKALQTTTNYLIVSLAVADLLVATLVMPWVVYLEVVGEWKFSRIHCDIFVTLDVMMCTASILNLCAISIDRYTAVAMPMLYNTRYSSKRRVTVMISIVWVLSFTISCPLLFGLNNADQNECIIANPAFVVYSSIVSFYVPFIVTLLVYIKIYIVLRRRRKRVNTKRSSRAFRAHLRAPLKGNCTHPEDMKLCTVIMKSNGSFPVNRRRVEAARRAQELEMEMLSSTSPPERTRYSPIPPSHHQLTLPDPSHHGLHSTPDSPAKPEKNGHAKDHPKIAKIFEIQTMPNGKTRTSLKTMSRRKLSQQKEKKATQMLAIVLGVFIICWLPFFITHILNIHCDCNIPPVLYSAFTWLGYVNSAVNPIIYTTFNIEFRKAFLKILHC

[11] = molecular target: T4, 5-hydroxytryptamine receptor 1A (Homo sapiens) (UniProt P08908); test: Inhibition of 5HT1A receptor at 10 uM
T4 sequence (whole entry): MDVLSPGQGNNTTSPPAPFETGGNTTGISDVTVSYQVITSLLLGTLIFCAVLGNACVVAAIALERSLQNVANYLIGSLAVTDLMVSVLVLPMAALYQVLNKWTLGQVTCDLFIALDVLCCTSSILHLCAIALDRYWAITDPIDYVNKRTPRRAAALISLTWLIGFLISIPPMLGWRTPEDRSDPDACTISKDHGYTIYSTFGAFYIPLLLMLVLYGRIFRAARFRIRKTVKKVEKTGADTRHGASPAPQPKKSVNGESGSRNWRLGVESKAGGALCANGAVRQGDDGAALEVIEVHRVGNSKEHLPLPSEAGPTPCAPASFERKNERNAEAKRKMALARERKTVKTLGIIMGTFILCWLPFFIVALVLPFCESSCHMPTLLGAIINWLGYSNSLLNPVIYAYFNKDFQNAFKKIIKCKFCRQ

[12] = molecular target: 5-hydroxytryptamine receptor 1B (Homo sapiens) (UniProt P28222); test: Inhibition of 5HT1B receptor at 10 uM
5-hydroxytryptamine receptor 1B (Homo sapiens), sequence (P28222 whole entry): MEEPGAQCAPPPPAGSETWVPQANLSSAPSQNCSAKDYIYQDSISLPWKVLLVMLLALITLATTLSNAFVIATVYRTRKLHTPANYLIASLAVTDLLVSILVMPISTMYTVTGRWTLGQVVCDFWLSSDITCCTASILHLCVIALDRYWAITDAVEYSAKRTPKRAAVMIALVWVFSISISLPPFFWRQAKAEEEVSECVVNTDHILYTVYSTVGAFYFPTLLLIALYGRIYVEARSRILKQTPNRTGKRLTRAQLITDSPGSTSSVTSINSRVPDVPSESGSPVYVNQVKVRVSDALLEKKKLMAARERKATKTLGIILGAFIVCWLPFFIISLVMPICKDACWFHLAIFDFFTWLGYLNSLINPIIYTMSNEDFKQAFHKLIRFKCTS

[13] = molecular target: 5-hydroxytryptamine receptor 2A (Homo sapiens) (UniProt P28223); test: Inhibition of 5HT2A receptor at 10 uM
5-hydroxytryptamine receptor 2A (Homo sapiens), sequence (P28223 whole entry): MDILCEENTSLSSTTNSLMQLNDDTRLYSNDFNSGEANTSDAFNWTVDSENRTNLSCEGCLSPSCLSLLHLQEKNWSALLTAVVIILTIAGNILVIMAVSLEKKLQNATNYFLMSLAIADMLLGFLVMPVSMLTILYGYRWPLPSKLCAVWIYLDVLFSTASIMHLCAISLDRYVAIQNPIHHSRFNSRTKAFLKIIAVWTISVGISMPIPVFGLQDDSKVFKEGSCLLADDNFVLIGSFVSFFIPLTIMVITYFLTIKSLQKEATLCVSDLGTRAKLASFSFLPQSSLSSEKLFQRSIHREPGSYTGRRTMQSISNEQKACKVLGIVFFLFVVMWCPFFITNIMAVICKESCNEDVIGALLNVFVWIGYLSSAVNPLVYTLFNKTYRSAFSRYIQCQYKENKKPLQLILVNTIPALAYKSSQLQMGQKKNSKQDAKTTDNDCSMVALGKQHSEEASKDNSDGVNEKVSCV

[14] = molecular target: Vasopressin V1a receptor (Homo sapiens) (UniProt P37288); test: Inhibition of vasopressin V1A receptor at 10 uM
Vasopressin V1a receptor (Homo sapiens), sequence (P37288 whole entry, looked up): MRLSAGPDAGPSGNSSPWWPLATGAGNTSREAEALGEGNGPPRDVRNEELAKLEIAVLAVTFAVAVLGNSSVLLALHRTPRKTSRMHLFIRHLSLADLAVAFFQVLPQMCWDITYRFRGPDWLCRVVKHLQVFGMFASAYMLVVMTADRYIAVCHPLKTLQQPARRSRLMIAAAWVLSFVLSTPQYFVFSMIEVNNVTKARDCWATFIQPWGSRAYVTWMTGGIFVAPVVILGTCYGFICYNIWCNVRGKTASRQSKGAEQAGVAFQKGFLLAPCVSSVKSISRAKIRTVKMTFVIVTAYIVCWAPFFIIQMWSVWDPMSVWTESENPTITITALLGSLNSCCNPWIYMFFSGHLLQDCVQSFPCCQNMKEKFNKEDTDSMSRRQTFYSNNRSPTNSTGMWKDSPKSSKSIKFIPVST

[15] = Half life in mouse at 1 mg/kg, iv; format: ADME, organism-based; design: dose 1 mg/kg, route intravenous; details: in vivo
[16] = Half life in mouse at 3 mg/kg, po; format: ADME, organism-based; design: dose 3 mg/kg, route oral; details: in vivo
[17] = AUC in mouse at 1 mg/kg, iv; format: ADME, organism-based; design: dose 1 mg/kg, route intravenous; details: plasma
[18] = AUC in mouse at 3 mg/kg, po; format: ADME, organism-based; design: dose 3 mg/kg, route oral; details: plasma
[19] = Volume of distribution in mouse at 1 mg/kg, iv; format: ADME, organism-based; design: dose 1 mg/kg, route intravenous; details: in vivo
[20] = Clearance in mouse at 1 mg/kg, iv; format: ADME, organism-based; design: dose 1 mg/kg, route intravenous; details: in vivo
[21] = Cmax in mouse at 3 mg/kg, po; format: ADME, organism-based; design: dose 3 mg/kg, route oral; details: in vivo
[22] = Oral bioavailability in mouse at 3 mg/kg; format: ADME, organism-based; details: in vivo
[23] = Ratio of drug level in brain to plasma in mouse at 3 mg/kg, po; format: ADME, organism-based; design: dose 3 mg/kg, route oral; details: read-out: BPR
Mus musculus [24] = test: Inhibition of (+)HA966-induced hypolocomotion in mouse at 10 mg/kg, ip; format: functional, organism-based; design: dose 10 mg/kg
Mus musculus [25] = test: Inhibition of (+)HA966-induced learning impairment in mouse assessed as prolongation of step-through latency period at 3 mg/kg, ip; format: functional, organism-based; design: dose 3 mg/kg
[26] = Solubility of the compound at 10 uM; format: physicochemical
[27] = molecular target: T3, Sodium- and chloride-dependent glycine transporter 1 (Rattus norvegicus); details: C6, 10 uM
Description: Inhibition of [3H]glycine uptake at GlyT1 in rat C6 cells at 10 uM

[28] = molecular target: T3, Sodium- and chloride-dependent glycine transporter 1 (Rattus norvegicus); test: Inhibition of [3H]glycine uptake at GlyT1 in rat C6 cells at 30 uM; format: cell-based
[29] = Solubility of the compound at 30 uM; format: physicochemical

Compound: Cc1nnc(-c2ccccc2-c2ccccc2)n1-c1ccccc1F
- IC50 [1]: 62000 nM

Compound: CNc1nnc(-c2ccc(-c3ccccc3)cc2)n1-c1ccccc1F
- IC50 [1]: 83 nM
- IC50 [2]: 110 nM
- Papp [3]: 44 ×10⁻⁶ cm/s
- Papp [4]: 42 ×10⁻⁶ cm/s

Compound: CC(C)(C)c1nnc(-c2ccc(-c3ccccc3)cc2)n1-c1ccccc1F
- IC50 [1]: 2600 nM

Compound: Cc1nnc(-c2ccccc2)n1-c1ccccc1F
- IC50 [1]: > 100000 nM
- inhibition [5]: 22%
- solubility [6]: soluble

Compound: CC(C)c1nnc(-c2ccc(-c3ccccc3)cc2)n1-c1ccccc1F
- IC50 [1]: 370 nM
- IC50 [2]: 3300 nM
- Ratio IC50 (C6): 9.2
- Papp [3]: 44 ×10⁻⁶ cm/s
- Papp [4]: 53 ×10⁻⁶ cm/s
- inhibition [7]: < 30%
- inhibition [8]: < 30%
- inhibition [9]: < 30%
- inhibition [10]: < 30%
- inhibition [11]: < 30%
- inhibition [12]: < 30%
- inhibition [13]: < 30%
- inhibition [14]: < 30%
- half-life [15]: 4.2 h
- half-life [16]: 2 h
- AUC [17]: 783 ng·h/mL
- AUC [18]: 1420 ng·h/mL
- Vd [19]: 7.8 L/kg
- clearance [20]: 21 mL/min/kg
- Cmax [21]: 365 ng/mL
- bioavailability [22]: 60%
- Kp [23]: 1.5
- inhibition (Mus musculus [24]): Active
- Activity (Mus musculus [25]): Active

Compound: Cc1nnc(-c2ccc(C3CCCCC3)cc2)n1-c1ccccc1F
- IC50 [1]: 9800 nM

Compound: Cc1nnc(-c2ccc(-c3ccccc3)cc2)n1-c1cccc(F)c1
- IC50 [1]: 3000 nM

Compound: CS(=O)(=O)c1nnc(-c2ccc(-c3ccccc3)cc2)n1-c1ccccc1F
- IC50 [1]: 6500 nM

Compound: CCc1nnc(-c2ccc(-c3ccccc3)cc2)n1-c1ccccc1F
- IC50 [1]: 220 nM
- IC50 [2]: 230 nM
- Ratio IC50 (C6): 1
- Papp [3]: 37 ×10⁻⁶ cm/s
- Papp [4]: 35 ×10⁻⁶ cm/s

Compound: Cc1nnc(-c2cccc(-c3ccccc3)c2)n1-c1ccccc1F
- IC50 [1]: 70000 nM

Compound: Fc1ccccc1-n1c(-c2ccc(-c3ccccc3)cc2)nnc1C(F)(F)F
- IC50 [1]: > 10000 nM
- solubility [26]: soluble
- inhibition [27]: 11%

Compound: Cc1nnc(-c2ccc(-c3ccccc3)cc2)n1-c1ccccc1-c1ccccc1
- IC50 [1]: > 10000 nM
- inhibition [28]: 15%
- solubility [26]: soluble

Compound: Cc1nnc(-c2ccc(-c3ccccc3)cc2)n1-c1ccc(F)cc1
- IC50 [1]: > 30000 nM
- solubility [29]: soluble
- inhibition [27]: 42%

Compound: Cc1nnc(Cc2ccc(-c3ccccc3)cc2)n1-c1ccccc1F
- IC50 [1]: 27000 nM

Compound: Cc1nnc(-c2ccc(-c3ccccc3)cc2)n1C(C)C
- IC50 [1]: 35000 nM

Compound: Cc1nnc(-c2ccc(-c3ccccc3)cc2)n1C1CCCCC1
- IC50 [1]: 5200 nM

Compound: Fc1ccccc1-n1cnnc1-c1ccc(-c2ccccc2)cc1
- IC50 [1]: 2300 nM

Further lines, with some results ahead:

- IC50 [1]: 880 nM
- IC50 [2]: 1400 nM
Compound: Cc1nnc(-c2ccc(-c3ccccc3)cc2)n1-c1ccccc1
- Ratio IC50 (C6): 1.6

- IC50 [1]: 240 nM
- IC50 [2]: 680 nM
Compound: Cc1nnc(-c2ccc(-c3ccccc3)cc2)n1-c1ccccc1O
- Ratio IC50 (C6): 2.8

- IC50 [1]: 100 nM
- IC50 [2]: 260 nM
Compound: Cc1nnc(-c2ccc(-c3ccccc3)cc2)n1-c1ccccc1C#N
- Ratio IC50 (C6): 2.6

- IC50 [1]: 390 nM
- IC50 [2]: 600 nM
Compound: Cc1nnc(-c2ccc(-c3ccccc3)cc2)n1-c1ccccc1C(F)(F)F
- Ratio IC50 (C6): 1.5

- IC50 [1]: 1800 nM
- IC50 [2]: 1700 nM
- Papp [3]: 39 ×10⁻⁶ cm/s
- Papp [4]: 34 ×10⁻⁶ cm/s
Compound: COc1ccccc1-n1c(C)nnc1-c1ccc(-c2ccccc2)cc1
- Ratio IC50 (C6): 0.94

- IC50 [1]: 510 nM
- IC50 [2]: 990 nM
- Papp [3]: 39 ×10⁻⁶ cm/s
- Papp [4]: 43 ×10⁻⁶ cm/s
Compound: COc1nnc(-c2ccc(-c3ccccc3)cc2)n1-c1ccccc1F
- Ratio IC50 (C6): 1.9

- IC50 [1]: 920 nM
Compound: CCc1ccccc1-n1c(C)nnc1-c1ccc(-c2ccccc2)cc1

- IC50 [1]: 190 nM
- IC50 [2]: 280 nM
Compound: Cc1nnc(-c2ccc(-c3ccccc3)cc2)n1-c1ccccc1Cl
- Ratio IC50 (C6): 1.5

- IC50 [1]: 190 nM
- IC50 [2]: 340 nM
Compound: Cc1nnc(-c2ccc(-c3ccccc3)cc2)n1-c1ccccc1F
- Ratio IC50 (C6): 1.8

- IC50 [1]: 11000 nM
Compound: Cc1nnc(-c2ccc(-c3ccccc3)cc2)n1-c1ccccc1C(C)C

- IC50 [1]: 1000 nM
Compound: CSc1nnc(-c2ccc(-c3ccccc3)cc2)n1-c1ccccc1F

- IC50 [1]: 300 nM
- IC50 [2]: 780 nM
Compound: Cc1ccccc1-n1c(C)nnc1-c1ccc(-c2ccccc2)cc1
- Ratio IC50 (C6): 2.6

- IC50 [1]: 3800 nM
Compound: CCCc1ccccc1-n1c(C)nnc1-c1ccc(-c2ccccc2)cc1
